Results: patent publication EP4721732A1, “PHARMACEUTICAL COMPOSITION CONTAINING CRISDESALAZINE WITH IMPROVED STABILITY AND DISSOLUTION RATE” (priority 2023, dated 2024)
In brackets after ≈: the same amount, converted by molar mass. Read-outs that look alike come from different tables or passages of the source.

Tests used:
[1] = pH-dependent equilibrium solubility; format: physicochemical; conditions: for Equilibrium Solubility: BLOD = below limit of detection; for solubility thermodynamic at 12 h / solubility thermodynamic at 24 h: purified water, thermodynamic from solid
Experimental: First, the inventors of the present invention measured the pH-dependent equilibrium solubility of crisdesalazine (2-hydroxy-5-[2-(4-trifluoromethylphenyl)ethylamino]benzoic acid), and the results of the solubility at 12 hours and 24 hours were as shown in Table 1 and Figure 1 below. […]

[2] = Compatibility evaluation of crisdesalazine with excipients; format: physicochemical
Text: One embodiment of the present invention provides a pharmaceutical composition substantially free of lactose. The inventors conducted "compatibility" evaluation experiments between crisdesalazine and various excipients.
In other words, the long-term stability of crisdesalazine and lactose was difficult to predict based solely on short-term compatibility evaluation tests.
However, when compressed to a target hardness of 7-9 kPa, the target hardness was not achieved. The appearance of the tablet changed to a bluish gray color during the short period between mixing and compression.

In the case of O=C(O)c1cc(NCCc2ccc(C(F)(F)F)cc2)ccc1O [crisdesalazine, 2-hydroxy-5-[2-(4-trifluoromethylphenyl)ethylamino]benzoic acid], the “Equilibrium Solubility” value ([1]; pH 3, 12 hours) is reported as “BLOD”, the “Equilibrium Solubility” value ([1]; pH 3, 24 hours) is reported as “BLOD” and the “Equilibrium Solubility” value ([1]; pH 4, 12 hours) is reported as “BLOD”. It also gave a solubility thermodynamic at 12 h ([1]; pH 1, simulated gastric fluid, pH 1, 12 hours, read-out: Equilibrium Solubility) of 16.4 µg/mL (≈ 50.4 µM), a solubility thermodynamic at 24 h ([1]; pH 1, simulated gastric fluid, pH 1, 24 hours, read-out: Equilibrium Solubility) of 15.7 µg/mL (≈ 48.3 µM) and a solubility thermodynamic at 12 h ([1]; pH 2, simulated gastric fluid, pH 2, 12 hours, read-out: Equilibrium Solubility) of 2.6 µg/mL (≈ 7.99 µM). It also gave a solubility thermodynamic at 24 h ([1]; pH 2, simulated gastric fluid, pH 2, 24 hours, read-out: Equilibrium Solubility) of 1.7 µg/mL (≈ 5.23 µM), a solubility thermodynamic at 24 h ([1]; pH 4, aqueous buffer, pH 4, 24 hours, read-out: Equilibrium Solubility) of 2.2 µg/mL (≈ 6.76 µM) and a solubility thermodynamic at 12 h ([1]; pH 5, aqueous buffer, pH 5, 12 hours, read-out: Equilibrium Solubility) of 0.7 µg/mL (≈ 2.15 µM). It also gave a solubility thermodynamic at 24 h ([1]; pH 5, aqueous buffer, pH 5, 24 hours, read-out: Equilibrium Solubility) of 5.9 µg/mL (≈ 18.1 µM), a solubility thermodynamic at 12 h ([1]; pH 6, aqueous buffer, pH 6, 12 hours, read-out: Equilibrium Solubility) of 6.4 µg/mL (≈ 19.7 µM) and a solubility thermodynamic at 24 h ([1]; pH 6, aqueous buffer, pH 6, 24 hours, read-out: Equilibrium Solubility) of 11.5 µg/mL (≈ 35.4 µM). The solubility thermodynamic at 12 h ([1]; pH 7, aqueous buffer, pH 7, 12 hours, read-out: Equilibrium Solubility) was 38.2 µg/mL (≈ 117 µM), the solubility thermodynamic at 24 h ([1]; pH 7, aqueous buffer, pH 7, 24 hours, read-out: Equilibrium Solubility) was 39.7 µg/mL (≈ 122 µM) and the solubility thermodynamic at 12 h ([1]; pH 7, aqueous buffer, pH 7 or lower, 12 hours, read-out: equilibrium solubility in purified water) was ≤ 38.2 µg/mL. For the same compound, the solubility thermodynamic at 24 h ([1]; pH 7, aqueous buffer, pH 7 or lower, 24 hours, read-out: equilibrium solubility in purified water) was ≤ 39.7 µg/mL, the solubility thermodynamic at 12 h ([1]; pH 8, aqueous buffer, pH 8, 12 hours, read-out: Equilibrium Solubility) was 254 µg/mL (≈ 781 µM) and the solubility thermodynamic at 24 h ([1]; pH 8, aqueous buffer, pH 8, 24 hours, read-out: Equilibrium Solubility) was 252 µg/mL (≈ 773 µM). For the same compound, the solubility thermodynamic at 12 h ([1]; pH 9, aqueous buffer, pH 9, 12 hours, read-out: Equilibrium Solubility) was 1210 µg/mL (≈ 3720 µM), the solubility thermodynamic at 24 h ([1]; pH 9, aqueous buffer, pH 9, 24 hours, read-out: Equilibrium Solubility) was 1230 µg/mL (≈ 3780 µM) and the solubility thermodynamic at 12 h ([1]; pH 10, aqueous buffer, pH 10, 12 hours, read-out: Equilibrium Solubility) was 685 µg/mL (≈ 2110 µM). The solubility thermodynamic at 24 h ([1]; pH 10, aqueous buffer, pH 10, 24 hours, read-out: Equilibrium Solubility) was 678 µg/mL (≈ 2080 µM), the solubility thermodynamic at 12 h ([1]; pH 11, aqueous buffer, pH 11, 12 hours, read-out: Equilibrium Solubility) was 662 µg/mL (≈ 2040 µM) and the solubility thermodynamic at 24 h ([1]; pH 11, aqueous buffer, pH 11, 24 hours, read-out: Equilibrium Solubility) was 718 µg/mL (≈ 2210 µM). The solubility thermodynamic at 12 h ([1]; pH 12, aqueous buffer, pH 12, 12 hours, read-out: Equilibrium Solubility) was 1220 µg/mL (≈ 3770 µM), the solubility thermodynamic at 24 h ([1]; pH 12, aqueous buffer, pH 12, 24 hours, read-out: Equilibrium Solubility) was 1220 µg/mL (≈ 3760 µM) and the compatibility with lactose ([2]; 13-week compatibility study, only minor powder coagulation, minimal changes in impurities) was “judged to be compatible”. The compatibility with excipients ([2]; with calcium phosphate dibasic, hydroxypropyl methylcellulose (HPMC), meglumine, magnesium oxide (MgO)) was “poor compatibility”.
